Assays:
Format in all cases: biochemical
Human plasma kallikrein = molecular target: T1, Human plasma kallikrein (Homo sapiens, UniProt P03952); test: Human plasma kallikrein inhibition, H-D-Prolyl-Phe-Arg-pNA substrate; settings: 50 mM Tris-HCl, pH 7.8, 200 mM NaCl, 0.05% BSA
T1 construct: from tissue; host or cells: human plasma
Experimental: (§1) Protease inhibition was assayed according to published procedures with minor modifications using various proteases and specific chromogenic peptide p-nitroanilide substrates. Assays were performed in Costar ultra-low cluster 96-well microtiter plate (Costar Corning Corp., Cambridge Mass.). Each protease was incubated with various concentrations of the test compound for 15 min. at 37° C. or as otherwise indicated, in specific assay buffer, and the residual activity was then measured by addition of the substrate. p-Nitroaniline produced by the proteolysis was determined by measuring the change in absorbance at 405 nm on a SpectraMAX 340 plate reader (Molecular devices, Sunnyvale, Calif.).
(§2) 1. The inhibition constant, Ki is calculated from individual data points using the equation for a tight-binding inhibitor (See Beith, “Proteinase Inhibitors-Proceedings of 2nd Int. Res. Conference”, Fritz, et al. eds., New York, p.4463-4469 (1974)): […]
(§3) 2. Other inhibition data (Ki>>[E]o), the Ki is calculated from using the equations for a competitive inhibitor: [formula] […]
(§4) Human plasma and r-tissue kallikrein activity were determined in 50 mM Tris-HCl1, pH 7.8, 200 mM NaCl, 0.05% BSA by using H-D-Prolyl-Phe-Arg-pNA and DL-Val-Leu-Arg-pNA, respectively (See Lottenberg, et al., Meth. Enzymol. 80, 341-361 (1981)). […]

[1] = molecular target: T2, Bovine Pancreatic Chymotrypsin (Bos taurus, UniProt P00766); test: Bovine pancreatic chymotrypsin inhibition, N-Suc-Ala-Ala-Pro-Phe-pNA substrate; settings: 100 mM Tris-HCl, pH 7.8, 10 mM CaCl2
T2 construct: from tissue; host or cells: bovine pancreas
Experimental: as §1, §2, §3
Bovine Pancreatic Chymotrypsin activity was determined by using N-Suc-Ala-Ala-Pro-Phe-pNA in 100 mM Tris-HCl, pH 7.8, 10 mM CaCl2 (See Delmar, et al., J. Biochem. 85, 157-162 (1979)).
(§5) The inhibition constant (Ki) of the test compounds against each proteolytic enzyme was determined according to Zitnik et al., Biochem. Biophys. […]

Human plasma factor Xa = molecular target: T3, Human plasma factor Xa (Homo sapiens, UniProt P00742); test: Human plasma factor Xa inhibition, N-Benzoyl-Ile-Glu-Gly-Arg-pNA substrate; settings: 50 mM Tris-HCl, pH 7.8, 200 mM NaCl, 0.05% BSA
T3 construct: from tissue; host or cells: human plasma
Experimental: as §1, §2, §3
Human plasma factor Xa activity was determined by using N-Benzoyl-Ile-Glu-Gly-Arg-pNA in 50 mM Tris-HCl, pH 7.8, 200 mM NaCl, 0.05% BSA (See Lottenberg, et al. Meth. Enzymol. 80, 341-361 (1981)).
as §5

[2] = molecular target: Human r-tissue kallikrein (Homo sapiens, UniProt P06870); test: Human r-tissue kallikrein inhibition, DL-Val-Leu-Arg-pNA substrate; settings: 50 mM Tris-HCl, pH 7.8, 200 mM NaCl, 0.05% BSA
Experimental: as §1, §2, §3, §4

Human plasma thrombin = molecular target: T4, Human plasma thrombin (Homo sapiens, UniProt P00734); test: Human plasma thrombin inhibition, H-D-Phe-Pip-Arg-pNA substrate; settings: the 5th table, unit inferred
T4 construct: from tissue; host or cells: human plasma
Experimental: as §1
(§6) 1. The inhibition constant, Ki is calculated from individual data points using the equation for a tight-binding inhibitor (See Beith, “Proteinase Inhibitors-Proceedings of 2nd Int. Res. Conference”, Fritz, et al. eds., New York, p.4463-4469 (1974)):
(§7) The Ki values are obtained by correcting Ki ′ values for the effect of substrate concentration according to: [formula]
(§8) 2. Other inhibition data (Ki>>[E]o), the Ki is calculated from using the equations for a competitive inhibitor: [formula]
Human plasma thrombin activity was determined by using H-D-Phe-Pip-Arg-pNA in 50 mM Tris-HCl, pH 8.3, 100 mM NaCl, 1% BSA (See Lottenberg, et al., Meth. Enzymol. 80, 341-361 (1981)).
(§9) The inhibition constant (Ki) of the test compounds against each proteolytic enzyme was determined according to Zitnik et al., Biochem. Biophys. Res. Commun. 232, 687-697 (1997)).

[3] = molecular target: T5, Human Neutrophil Cathepsin G (Homo sapiens, UniProt P08311); test: Human neutrophil cathepsin G inhibition, N-Suc-Ala-Ala-Pro-Phe-pNA substrate; settings: 625 mM Tris-HCl, pH 7.5, 2.5 mM MgCl2, 0.125% Brij 35
T5 construct: from tissue; host or cells: human neutrophils
T5 sequence (P08311 21-244): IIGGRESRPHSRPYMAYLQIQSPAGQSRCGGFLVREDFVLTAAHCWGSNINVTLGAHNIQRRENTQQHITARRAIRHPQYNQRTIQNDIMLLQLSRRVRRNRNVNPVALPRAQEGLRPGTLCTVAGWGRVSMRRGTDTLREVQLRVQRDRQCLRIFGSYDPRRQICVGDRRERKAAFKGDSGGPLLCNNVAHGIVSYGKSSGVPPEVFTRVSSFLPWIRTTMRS
Experimental: as §1, §6, §7, §3
Human Neutrophil Cathepsin G activity was determined by using N-Suc-Ala-Ala-Pro-Phe-pNA in 625 mM Tris-HCl, pH 7.5, 2.5 mM MgCl2, 0.125% Brij 35 (See Groutas et al., Arch. Biochem. Biophys. 294, 144-146 (1992)). […]

[4] = molecular target: T6, Human Neutrophil elastase (Homo sapiens, UniProt P08246); test: Human neutrophil elastase inhibition, pyroGlu-Pro-Val-pNA substrate; settings: 100 mM Tris-HCl, pH 8.3, 0.96 M NaCl, 1% BSA
T6 construct: from tissue; host or cells: human neutrophils
T6 sequence (P08246 30-267): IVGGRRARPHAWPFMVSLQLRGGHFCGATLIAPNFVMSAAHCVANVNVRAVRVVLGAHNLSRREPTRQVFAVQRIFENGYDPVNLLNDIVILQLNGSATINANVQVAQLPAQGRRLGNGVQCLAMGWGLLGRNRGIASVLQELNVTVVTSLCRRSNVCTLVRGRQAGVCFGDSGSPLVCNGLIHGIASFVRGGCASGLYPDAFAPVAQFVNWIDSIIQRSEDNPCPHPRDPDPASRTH
Experimental: as §1, §2, §3
Human Neutrophil elastase activity was determined by using pyroGlu-Pro-Val-pNA in 100 mM Tris-HCl, pH 8.3, 0.96 M NaCl, 1% BSA (See Kramps, et al. Scand. J. Clin. Lab. Invest. 43, 427-432 (1983)).
as §5

[5] = molecular target: T7, Bovine pancreatic Trypsin (TPCK-treated) (Bos taurus, UniProt P00760); test: Bovine pancreatic trypsin inhibition, N-α-Benzoyl-L-Arg-pNA substrate; settings: the 5th table, unit inferred
T7 construct: from tissue; host or cells: bovine pancreas
T7 sequence (P00760 24-246): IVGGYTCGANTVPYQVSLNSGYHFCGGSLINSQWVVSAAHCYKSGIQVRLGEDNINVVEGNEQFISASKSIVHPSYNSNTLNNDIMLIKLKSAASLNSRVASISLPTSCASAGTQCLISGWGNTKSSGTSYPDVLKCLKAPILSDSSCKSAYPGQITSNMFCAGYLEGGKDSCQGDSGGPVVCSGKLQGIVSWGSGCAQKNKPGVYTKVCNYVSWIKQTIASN
Experimental: as §1, §6, §7, §8
C. Bovine Pancreatic Trypsin
Bovine pancreatic Trypsin (TPCK-treated) activity was determined by using N-α-Benzoyl-L-Arg-pNA in 50 mM Tris-HCl, pH 8.2, 20 mM CaCl2 (See Somorin, et al., J. Biochem. 85, 157-162 (1979)).
as §9

T1 sequence (P03952 391-638 limits assumed): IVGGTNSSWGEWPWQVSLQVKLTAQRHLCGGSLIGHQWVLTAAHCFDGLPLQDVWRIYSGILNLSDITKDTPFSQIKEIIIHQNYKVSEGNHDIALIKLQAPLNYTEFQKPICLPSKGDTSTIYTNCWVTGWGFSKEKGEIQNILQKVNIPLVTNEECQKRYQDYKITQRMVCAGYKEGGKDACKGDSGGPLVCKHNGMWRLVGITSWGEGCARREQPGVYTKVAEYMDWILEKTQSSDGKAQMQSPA
T1 sequence (P03952 20-390 partner limits assumed): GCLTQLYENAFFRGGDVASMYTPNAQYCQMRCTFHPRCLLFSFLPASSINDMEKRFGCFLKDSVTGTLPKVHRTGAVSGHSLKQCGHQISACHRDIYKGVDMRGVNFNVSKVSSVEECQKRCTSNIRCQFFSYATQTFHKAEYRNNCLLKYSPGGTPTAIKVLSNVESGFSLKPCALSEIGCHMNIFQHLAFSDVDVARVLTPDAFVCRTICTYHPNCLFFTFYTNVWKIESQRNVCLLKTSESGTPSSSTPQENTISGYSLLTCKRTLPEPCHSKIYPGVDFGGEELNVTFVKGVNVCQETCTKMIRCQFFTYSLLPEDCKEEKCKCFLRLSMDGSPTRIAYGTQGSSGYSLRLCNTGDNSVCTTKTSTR
Chain of Human r-tissue kallikrein (P06870 25-262): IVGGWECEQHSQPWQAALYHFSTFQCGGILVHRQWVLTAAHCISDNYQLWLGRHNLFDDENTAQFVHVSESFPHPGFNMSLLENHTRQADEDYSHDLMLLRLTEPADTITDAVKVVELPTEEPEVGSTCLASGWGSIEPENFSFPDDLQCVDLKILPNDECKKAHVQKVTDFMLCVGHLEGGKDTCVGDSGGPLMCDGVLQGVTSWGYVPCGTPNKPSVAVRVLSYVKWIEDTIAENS
T3 sequence (P00742 235-488 limits assumed): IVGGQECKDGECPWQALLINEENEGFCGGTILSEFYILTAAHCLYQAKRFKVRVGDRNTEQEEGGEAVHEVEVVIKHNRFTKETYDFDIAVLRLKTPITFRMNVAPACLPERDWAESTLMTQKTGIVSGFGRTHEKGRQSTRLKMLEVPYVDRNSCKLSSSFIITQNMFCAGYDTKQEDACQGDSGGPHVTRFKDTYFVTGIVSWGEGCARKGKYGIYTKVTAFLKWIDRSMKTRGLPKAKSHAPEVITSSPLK
T3 sequence (P00742 41-179 partner limits assumed): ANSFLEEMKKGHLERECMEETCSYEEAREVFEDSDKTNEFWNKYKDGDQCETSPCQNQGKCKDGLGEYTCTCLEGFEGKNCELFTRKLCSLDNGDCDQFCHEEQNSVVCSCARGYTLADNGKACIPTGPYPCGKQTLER

Ki (Human plasma kallikrein): 1.6 µM
Ki [1]: > 100 µM
Ki (Human plasma factor Xa): 17.7 µM
Ki [2]: > 100 µM
Ki (Human plasma thrombin): 25.8 µM
Ki [3]: > 100 µM
Ki [4]: > 100 µM
Ki [5]: 2.4 µM
Structure (SMILES): Cc1cc2cc(CNC(=O)Cc3cc4cc(C(=N)N)ccc4s3)ccc2[nH]1 [drawing 17 Benzthiophene 5-carboxamidine n=1]

Reference: patent publication US6362216B1, “Compounds which inhibit tryptase activity” (Array Biopharma Inc., priority 1998, dated 2002)
